Consider 42 compounds from paper PMC9435431, “Novel chemical entities inhibiting Mycobacterium tuberculosis growth identified by phenotypic high-throughput screening” (Scientific Reports, 2022).

Converted amounts (≈) assume the structure as drawn. Counter-ions that a name gives are not always drawn. Like-named read-outs stand apart in the source and are kept apart here.

This experiment concerns wild-type M. tuberculosis. Kind of experiment: microbe, parasite or virus in culture. It counts as cell-based, Mycobacterium tuberculosis. The settings on record: for IC90 / MIC: Mycobacterium tuberculosis; for MIC: read-out: MIC.

Usually IC90 stands for the concentration at which the effect reaches the 90% level. Lower therefore signals an effect from little substance. For the compound `Cc1nc(-c2ccccn2)nc(NCCNc2ccc(C(F)(F)F)cn2)c1Cl` [APDP-2], the IC90 amounted to 33 µM.

As to `Cc1nc(-c2ccccn2)nc(NCc2ccccc2)c1Cl` [APDP-3], the 90% effect level (IC90) was put at 6.3 µM.

For `CC1C(CNC(=O)Nc2ccccc2)CC2CC1C2(C)C` (centres unmarked) [HBU-2], it took 4.9 µM to reach the 90% level (IC90). `CC(=O)c1ccc(NC(=O)NC(C)C23CC4CC(CC(C4)C2)C3)cc1` (centres unmarked) [HBU-3] had a concentration for an effect of 90% (IC90) of 29 µM. The same measure, in the same setting: in the case of `O=C(NCCc1ccc(Br)cc1)NC12CC3CC(CC(C3)C1)C2` [HBU-4] it was 12 µM; in that of `CC(NC(=O)Nc1nc(-c2ccc(Cl)cc2)cs1)C1CC2C=CC1C2` (centres unmarked) [HBU-5], 13 µM. Consider `CCC1(N2CCC(c3ccc(C(C)(C)C)cc3)CC2)CCCCC1` [Molecule 4PP-2, 4-(4-tert-Butyl-phenyl)-1-(1-ethyl-cyclohexyl)-piperidine], for which the MIC worked out at 2 µM (≈ 0.655 µg/mL). In addition, where the note is “120 h”, the MIC was found to be 2 ± 0.5 µM (≈ 0.655 µg/mL). Take `CC(C)(C)c1ccc(C2CCN(CC3CCCCC3)CC2)cc1` [Molecule 4PP-3, 4-(4-t-Butylphenyl)-1-(cyclohexylmethyl)piperidine; 2,2,2-trifluoroacetic acid]: the MIC turned out to be 6.8 µM (≈ 2.13 µg/mL). In addition, the MIC (120 h) was 6.8 ± 0.9 µM (≈ 2.13 µg/mL). Turning to `c1ccc(C2CCN(CC3CCCCC3)CC2)cc1` [Molecule 4PP-4, 1-Cyclohexylmethyl-4-phenyl-piperidine], the MIC amounted to 21 µM (≈ 5.41 µg/mL). Further, the MIC (120 h) was found to be 21 ± 9 µM (≈ 5.41 µg/mL). For `CC(C)(C)c1ccc(C2CCN(S(=O)(=O)C3CCCCC3)CC2)cc1` [Molecule 4PP-5, 4-(4-(t-Butyl)phenyl)-1-(cyclohexylsulfonyl)piperidine], the “anti-tubercular activity (in words)” value is “lost whole-cell activity”. For the same compound, the MIC (120 h) is over 20 µM. Consider `CC(C)(C)c1ccc(C2CCN(C(=O)C3CCCCC3)CC2)cc1` [Molecule 4PP-6, (4-(4-(t-Butyl)phenyl)piperidin-1-yl)(cyclohexyl)methanone], for which the “anti-tubercular activity (in words)” value is given as “lost whole-cell activity”. The MIC (120 h) is over 20 µM. Regarding `CC(C)(C)NC(=O)N1CCC(c2ccc(C(C)(C)C)cc2)CC1` [Molecule 4PP-7, N-(t-Butyl)-4-(4-(tert-butyl)phenyl)piperidine-1-carboxamide], the “anti-tubercular activity (in words)” value is reported as “loss of activity”. Under “120 h”, the MIC is over 20 µM.

For `CC(C)(C)c1ccc(C2CCN(C(=O)N3CCCCC3)CC2)cc1` [Molecule 4PP-8, (4-(4-(t-Butyl)phenyl)piperidin-1-yl)(piperidin-1-yl)methanone], the “anti-tubercular activity (in words)” value is listed as “loss of activity”. For the same compound, the MIC (120 h) was over 20 µM.

Consider `O=S(=O)(C1CCCCC1)N1CCC(c2ccccc2)CC1` [Molecule 4PP-9, 1-(Cyclohexylsulfonyl)-4-phenylpiperidine], for which the “anti-tubercular activity (in words)” value is “lost activity”. Besides, the MIC (120 h) is over 20 µM.

For the compound `O=C(C1CCCCC1)N1CCC(c2ccccc2)CC1` [Molecule 4PP-10, Cyclohexyl(4-phenylpiperidin-1-yl) methanone], the “anti-tubercular activity (in words)” value is given as “lost activity”. Further, where the note is “120 h”, the MIC was over 20 µM. `CC(C)(C)NC(=O)N1CCC(c2ccccc2)CC1` [Molecule 4PP-11, N-(tert-butyl)-4-phenylpiperidine-1-carboxamide]: the “anti-tubercular activity (in words)” value was “lost activity”. The MIC (120 h) was over 20 µM.

As for `O=C(N1CCCCC1)N1CCC(c2ccccc2)CC1` [Molecule 4PP-12, (4-Phenylpiperidin-1-yl)(piperidin-1-yl)methanone], the “anti-tubercular activity (in words)” value is recorded as “lost activity”. Further, the MIC (120 h) is over 20 µM. The matching figures for `O=C(NC1CCCCC1)N1CCC(c2ccccc2)CC1` [Molecule 4PP-13, N-cyclohexyl-4-phenylpiperidine-1-carboxamide]: “did not furnish activity” and over 20 µM. Take `CC(C)(C)CC(=O)N1CCC(c2ccccc2)CC1` [Molecule 4PP-14, 3,3-Dimethyl-1-(4-phenylpiperidin-1-yl)butan-1-one]: the “anti-tubercular activity (in words)” value is recorded as “did not furnish activity”. For the same compound, where the note is “120 h”, the MIC is over 20 µM. In the case of `CC(C)(C)c1ccc(C2CCN(C3CCCCC3)CC2)cc1` [Molecule 4PP-16, 4-(4-t-Butyl-phenyl)-1-cyclohexyl-piperidine, hydrochloride], the MIC was 2.7 µM. The MIC (120 h) came to 2.7 ± 0.8 µM. As to `CN(C)C1CCC(N2CCC(c3ccc(C(C)(C)C)cc3)CC2)CC1` (centres unmarked) [Molecule 4PP-17, 4-(4-(4-(t-Butyl)phenyl)piperidin-1-yl)-N,N-dimethylcyclohexan-1-amine], the “anti-tubercular activity (in words)” value is recorded as “detrimental to the activity”. Moreover, the MIC (120 h) was over 20 µM. As to `COC(=O)C1CCC(N2CCC(c3ccc(C(C)(C)C)cc3)CC2)CC1` (centres unmarked) [Molecule 4PP-18, Methyl 4-(4-(4-(tert-butyl)phenyl)piperidin-1-yl)cyclohexane-1-carboxylate], the “anti-tubercular activity (in words)” value was “loss in activity”. In addition, the MIC (120 h) was over 20 µM. The matching figures for `CC(C)(C)c1ccc(C2CCN(C3CCC(C(=O)O)CC3)CC2)cc1` (centres unmarked) [Molecule 4PP-19, 4-(4-(4-(tert-Butyl)phenyl)piperidin-1-yl)cyclohexane-1-carboxylic acid]: “loss in activity” and over 20 µM. The matching figures for `CC(C)(C)c1ccc(C2CCN(C3CCC(=O)CC3)CC2)cc1` [Molecule 4PP-20, 4-[4-(4-t-Butyl-phenyl)-piperidin-1-yl]-cyclohexanone]: “loss in activity” and over 20 µM. As for `CN(C)C1CCC(N2CCC(c3ccccc3)CC2)CC1` (centres unmarked) [Molecule 4PP-21, N,N-dimethyl-4-(4-phenylpiperidin-1-yl)cyclohexan-1-amine], the “anti-tubercular activity (in words)” value is “loss of activity”. For the same compound, where the note is “120 h”, the MIC was over 20 µM. On to `COC(=O)C1CCC(N2CCC(c3ccccc3)CC2)CC1` (centres unmarked) [Molecule 4PP-22, Methyl 4-(4-phenylpiperidin-1-yl)cyclohexane-1-carboxylate], for which the “anti-tubercular activity (in words)” value is listed as “loss of activity”. Moreover, the MIC (120 h) is over 20 µM.

For `OC1CCC(N2CCC(c3ccccc3)CC2)CC1` (centres unmarked) [Molecule 4PP-23, 4-(4-Phenylpiperidin-1-yl)cyclohexan-1-ol], the “anti-tubercular activity (in words)” value was “loss of activity”. In addition, where the note is “120 h”, the MIC was over 20 µM. Consider `CC(C)(C)c1ccc(C2CCN(C3CCOCC3)CC2)cc1` [Molecule 4PP-24, 4-(4-(tert-Butyl)phenyl)-1-(tetrahydro-2H-pyran-4-yl)piperidine], for which the MIC was over 20 µM. Moreover, the MIC (120 h) was over 20 µM. `CN1CCC(N2CCC(c3ccc(C(C)(C)C)cc3)CC2)CC1` [Molecule 4PP-25, 4-(4-(tert-Butyl)phenyl)-1'-methyl-1,4'-bipiperidine]: the MIC was over 20 µM. The MIC (120 h) was over 20 µM.

Turning to `c1ccc(C2CCN(C3CCOCC3)CC2)cc1` [Molecule 4PP-26, 4-Phenyl-1-(tetrahydro-2H-pyran-4-yl)piperidine], the MIC was over 20 µM. Moreover, the MIC (120 h) was over 20 µM.

On to `CN1CCC(N2CCC(c3ccccc3)CC2)CC1` [Molecule 4PP-27, 1'-Methyl-4-phenyl-1,4'-bipiperidine], for which the MIC was over 20 µM. Further, the MIC (120 h) was over 20 µM.

Consider `Brc1cccc(C2CCN(CC3CCCCC3)CC2)c1` [Molecule 4PP-28, 4-(3-Bromophenyl)-1-(cyclohexylmethyl)piperidine; 2,2,2-trifluoroacetic acid], for which the MIC came out at 2.8 µM (≈ 0.942 µg/mL). Besides, the MIC (120 h) is 2.8 ± 0.7 µM (≈ 0.942 µg/mL). For the compound `Clc1cccc(C2CCN(CC3CCCCC3)CC2)c1` [Molecule 4PP-29, 4-(3-Chlorophenyl)-1-(cyclohexylmethyl)piperidine; 2,2,2-trifluoroacetic acid], the MIC turned out to be 4.1 µM (≈ 1.2 µg/mL). For the same compound, the MIC (120 h) was determined as 4.1 µM (≈ 1.2 µg/mL).

`N#Cc1ccc(C2CCN(CC3CCCCC3)CC2)cc1.O=C(O)C(F)(F)F` [Molecule 4PP-30, 4-[1-(Cyclohexylmethyl)-4-piperidyl]benzonitrile; 2,2,2-trifluoroacetic acid]: the “anti-tubercular activity (in words)” value is “inactive”. The MIC (120 h) was over 20 µM. Regarding `O=C(O)C(F)(F)F.c1ccc2c(C3CCN(CC4CCCCC4)CC3)cccc2c1` [Molecule 4PP-31, 1-(Cyclohexylmethyl)-4-(1-naphthyl)piperidine; 2,2,2-trifluoroacetic acid], the IC90 is 2.7 µM and the MIC worked out at 2.7 µM. Besides, the MIC (120 h) was found to be 2.7 ± 2.4 µM. Turning to `C1=CC2(CCN(CC3CCCCC3)CC2)c2ccccc21` [Molecule 4PP-35, 1'-(Cyclohexylmethyl)spiro[indene-1,4'-piperidine]; 2,2,2-trifluoroacetic acid], the MIC came out at 6.3 µM (≈ 1.77 µg/mL). Moreover, the MIC (120 h) came to 6.3 ± 0.1 µM (≈ 1.77 µg/mL). Turning to `CC(=O)C1(c2ccccc2)CCN(CC2CCCCC2)CC1` [Molecule 4PP-36, 1-[1-(Cyclohexylmethyl)-4-phenyl-4-piperidyl]ethanone], the MIC (120 h) was over 20 µM.

For the compound `N#CC1(c2ccccc2)CCN(CC2CCCCC2)CC1` [Molecule 4PP-37, 1-(Cyclohexylmethyl)-4-phenyl-piperidine-4-carbonitrile; 2,2,2-trifluoroacetic acid], under “120 h”, the MIC is over 20 µM. For `CC(=O)NCC1(c2ccccc2)CCN(CC2CCCCC2)CC1` [Molecule 4PP-38, N-[[1-(Cyclohexylmethyl)-4-phenyl-4-piperidyl]methyl]acetamide; 2,2,2-trifluoroacetic acid], where the note is “120 h”, the MIC is over 20 µM. Still for that read-out and setting: in the case of `COC(=O)C1(c2ccccc2)CCN(CC2CCCCC2)CC1` [Molecule 4PP-39, Methyl 1-(cyclohexylmethyl)-4-phenyl-piperidine-4-carboxylate; 2,2,2-trifluoroacetic acid] it was over 20 µM; in that of `OCC1(c2ccccc2)CCN(CC2CCCCC2)CC1` [Molecule 4PP-40, [1-(Cyclohexylmethyl)-4-phenyl-4-piperidyl]methanol; 2,2,2-trifluoroacetic acid], over 20 µM. `c1ccc(C2CCN(Cc3ccc4c(c3)OCO4)CC2)cc1` [Molecule 4PP-42, 1-(Benzo[d][1,3]dioxol-5-ylmethyl)-4-phenylpiperidine]: the “anti-tubercular activity (in words)” value was “inactive”. The MIC (120 h) is over 20 µM.
